The values that follow are results of earlier work, collected in patent US7977431B2, “Dithiocarbamic esters” (LANXESS Deutschland GmbH, priority 2002, dated 2011).

For the first series the following is noted: pKa of the protonated substituent Z of the regulator, not of the regulator itself.
Regarding `C/C(Cl)=C/CSC(=S)n1cccc1` [Regulator compound (1), 3-chloro-2-butenyl 1H-pyrrole-1-carbodithioate], the “pKa value e Z-H” value is on record as 17.0.

Turning to `C/C(Cl)=C/CSC(=S)n1ccnc1` [Regulator compound (2), 3-chloro-2-butenyl 1H-imidazole-1-carbodithioate], the “pKa value e Z-H” value is given as 14.5.

For the molecule `CCN(C(=S)SCc1ccccc1)c1ccccc1` [Regulator compound (3), Benzyl ethyl-(phenyl)dithio-carbamate, reference compound], the “pKa value e Z-H” value is 5.1.

In the case of `CCN(C(=S)SC(C)C(=O)OC)c1ccccc1` (stereo not shown) [Regulator compound (4), Methyl 2-({[ethyl-(phenyl)amino]-carbonothioyl}-sulphanyl)-propanoate, reference compound], the “pKa value e Z-H” value is recorded as 5.1.

In the case of `CCN(C(=S)SC(C(=O)OC)c1ccccc1)c1ccccc1` (stereo not shown) [Regulator compound (5), Methyl ({[ethyl-(phenyl)amino]-carbonothioyl}-sulphanyl)(phenyl) acetate, reference compound], the “pKa value e Z-H” value is recorded as 5.1.

Consider `CCN(C(=S)SC/C=C(/C)Cl)c1ccccc1` [Regulator compound (6), reference compound], for which the “pKa value e Z-H” value is reported as 5.1.

The series is the same for the next values; noted with them: parent form Z-H of substituent Z.
For `O=C1CCCCCN1` [2-azepanone], the pKa value was 16.6.

Take `O=C1CCCCCCN1` [2-azocanone]: the pKa value is on record as 16.6.

Consider `O=C1CCCCN1` [2-piperidinone], for which the pKa value is on record as 16.6.

Consider `CC(=O)Nc1ccccc1` [N-phenylacetamide], for which the pKa value is 16.6.

As for `c1ccc2c(c1)[nH]c1ccccc12` [carbazole], the pKa value is recorded as 17.

On to `c1cn[nH]c1` [pyrazole], for which the pKa value is 14.0.

Take N-(methyl/ethyl)acetamide: the pKa value is on record as 16.6.
